The subject of the test is Toxoplasma gondii growth in host cells, no IFN-gamma. Description: compound activity on host-cell Toxoplasma growth – dose response (AID 1259420).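 Note: host cells were HeLa; final incubation lasted 72 hours.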

Several values for one entry are separate records, joined by “and”; a condition that tells them apart may be missing. Equal values may be shown once. Inconclusive results are not listed. Activity calls are given as the source filed them. The rule behind the calls is not given here.

AC50 data for 78 compounds are collected here from PubChem BioAssay AID1259420 (Broad Institute, 2018).

For `COC(=O)C1CC23C=CNC4CCC5(c6ccccc6NC15C2C)C43` (stereo not drawn), the AC50 – broadly, the concentration giving half of the maximal activity seen – was 19.4 µM.
To `O=C(Cc1ccccc1)N1CCC2(CC1)CC(N1CCCC1)CO2` (stereo not drawn) belongs > 39 µM (inactive).
As for `C[C@@H]1CN([C@@H](C)CO)C(=O)c2cccc(NC(=O)NC3CCCCC3)c2O[C@@H]1CN(C)Cc1ccc(C(F)(F)F)cc1`, the AC50 was > 39 µM (inactive).
In the case of `Cc1sc2ncnc(Oc3ccc(OCc4ccccc4)cc3)c2c1C`, the AC50 is 7.16 µM and 9.76 µM.
The same measure for `CCCC(Nc1nc(-c2cccnc2)nc2c1cnn2C)c1cccs1` (stereo not drawn): > 39 µM (inactive); for `O=C(NC1CCCC1)N1CC[C@H]2CN(Cc3ccc(Cl)cc3)S(=O)(=O)[C@@H]2CC1`: 28.5 µM.
In the case of `COCC1CN(C(=O)c2cc(C)on2)Cc2c1cnn2CC1CC1` (stereo not drawn), the AC50 is > 39 µM (inactive).
`COc1cccc(S(=O)(=O)N2CCCCN3[C@H](CO)[C@@H](c4ccc(C#CCC(C)C)cc4)[C@H]3C2)c1`: the AC50 is 12.1 µM and 13.6 µM and 21.9 µM.
The same measure for `CCN(CC)C(=O)C1Cn2ccnc2C2(CCN(CC(C)C)CC2)O1` (stereo not drawn): > 39 µM (inactive); for `CN1c2ccc(-c3ccc(C#N)cc3)cc2[C@@H]2[C@@H](CCN2S(=O)(=O)c2ccc(F)cc2)[C@@H]1CO`: 13 µM; for `COCC(=O)N1[C@@H](C#N)[C@H](c2ccc(C#CCC3CCCC3)cc2)[C@@H]1CO`: 18.7 µM.
`Cc1cnc(N2CCC3(CCC(CC(=O)N4CC=CC4)CC3)CC2)nc1`: the concentration at half-maximal activity (AC50) was 22.6 µM.
The same measure for `O=S(=O)(c1ccccc1F)N1CC[C@@H]2[C@@H](CO)Nc3ccc(C4=CCCCC4)cc3[C@@H]21`: 11.8 µM; for `COc1ccccc1C(=O)Nc1ccc(-c2nc(-c3ccc(C)cc3C)co2)cc1`: 21 µM.
The same measure for `N#Cc1cccc(-c2ccc(C3[C@@H]4CN(C(=O)c5ccc6c(c5)OCO6)C[C@H]3N4)cc2)c1` (stereo partly drawn): > 39 µM (inactive); for `COc1cccc(C#Cc2ccc([C@@H]3[C@H](C#N)N(C(=O)c4ccccn4)[C@H]3CO)cc2)c1`: 19.9 µM.
Turning to `N#Cc1ccc(-c2ccc3c(c2)[C@@H]2[C@@H](CCN2C(=O)C2CCCCC2)[C@H](CO)N3)cc1`, the AC50 is 18 µM.
To `C[C@H]1CN([C@@H](C)CO)C(=O)c2cccc(NS(=O)(=O)c3ccc(F)cc3)c2O[C@H]1CN(C)Cc1ccc(Cl)c(Cl)c1` belongs 17.6 µM; to `COc1ccccc1NC(=O)N1CC(=O)N2[C@H](CO)[C@H](c3ccc(C#CC(C)C)cc3)[C@H]2C1`, > 39 µM (inactive).
The same measure for `CC(=O)O.CC(=O)O.[Cl][Pt+2][Cl].[NH-]C1CCCCC1.[NH2-]`: 19.4 µM; for `Fc1cccc(CN2C[C@@H]3N[C@H](C2)C3c2ccc(/C=C/c3ccccc3)cc2)c1` (stereo partly drawn): 17.6 µM; for `Cc1cnn(C(C)C(=O)N2CCc3[nH]nc(-c4ccc(F)c(F)c4)c3C2)c1` (stereo not drawn): > 39 µM (inactive).
To `Oc1[nH]c2ccccc2c1N=Nc1nc(Nc2ccccc2)nc(N2CCOCC2)n1` belongs 16.9 µM; to `COCCN1CCc2c(cnc(-c3cccnc3)c2C(=O)O)C1`, > 39 µM (inactive).
Take `O=C(C[C@@H]1CC[C@@H]2[C@H](COC[C@@H](O)CN2S(=O)(=O)c2ccccc2)O1)NCC1CCCCC1`: the AC50 was 33.4 µM.
To `N#Cc1cccc(-c2ccc3c(c2)[C@H]2[C@H](CCN2C(=O)c2ccccc2F)[C@@H](CO)N3)c1` belongs 15.1 µM; to `O=C(c1cccn2c(-c3ccc(F)cc3)nnc12)N1CCC(O)(c2ccc(Cl)cc2)CC1`, > 39 µM (inactive); to `Cn1cnc(S(=O)(=O)N2CCCCN3[C@H](CO)[C@H](c4ccc(C5=CCCCC5)cc4)[C@@H]3C2)c1`, 23.4 µM and 22.7 µM.
For `CO[C@@H]1[C@@H](OC(N)=O)[C@@H](O)[C@H](Oc2ccc3c(O)c(NC(=O)c4ccc(O)c(CC=C(C)C)c4)c(=O)oc3c2C)OC1(C)C`, the concentration at half-maximal activity (AC50) was 18 µM.
The same measure for `CN(Cc1ccccn1)C(=O)C1=NOC2(CCN(S(=O)(=O)c3ccc(F)cc3)C2)C1` (stereo not drawn): > 39 µM (inactive); for `COc1ccc(-c2cnc3n2CCNC32CCN(C(=O)N3CCOCC3)CC2)cc1`: > 39 µM (inactive); for `COc1ccccc1-c1ccc2c(c1)[C@@H]1[C@@H](CCN1S(=O)(=O)c1ccc(C)cc1)[C@H](CO)N2`: 12.4 µM.
To `CO[C@H]1CCN(Cc2ccoc2)[C@H]2CN(Cc3ccncc3)C[C@@H]12` belongs > 39 µM (inactive); to `O=c1[nH]c(=O)n([C@H]2C[C@H](O)[C@@H](CO)O2)cc1F`, 0.346 µM; to `CCCNC(=O)c1cc(-c2cnc(NCc3ccccc3)nc2)cn1C`, 15.1 µM.
To `CN(C)C(=O)c1cccc(-c2ccc3c(c2)[C@@H]2[C@@H](CCN2C(=O)Cc2ccccc2)[C@@H](CO)N3)c1` belongs 21.7 µM.
As to `CN(C)C(=O)c1cccc(-c2ccc3c(c2)[C@H]2[C@H](CCN2C(=O)Cc2ccccc2)[C@H](CO)N3)c1`, the concentration at half-maximal activity (AC50) is 16.6 µM.
Take `COc1ccc(-c2nc(Nc3ccc(CN4CCCCC4)cc3)c3ccccc3n2)cc1`: the AC50 is 18.5 µM.
To `COc1ccccc1NC(=O)N1C[C@@H]2N[C@H](C1)C2c1ccc(/C=C/c2ccccc2)cc1` (stereo partly drawn) belongs 6.68 µM; to `COc1ccc(CN2CCO[C@H]3[C@H]2CC[C@H]3OCCCn2cccn2)cc1`, > 39 µM (inactive).
The same measure for `COCCn1cc2c(n1)C(CNC(=O)CS(C)(=O)=O)OCC2` (stereo not drawn): > 39 µM (inactive); for `CS(=O)(=O)N1CC(=O)N2[C@@H](CO)[C@H](c3ccc(C#Cc4ccc(F)cc4)cc3)[C@@H]2C1`: 28 µM.
The same measure for `CCCc1ccc(S(=O)(=O)N2CCC[C@@H]2C(=O)NCCc2csc(-c3ccccc3)n2)cc1`: 18.7 µM.
Take `COc1cccc(S(=O)(=O)N2CCCCN3[C@H](CO)[C@H](c4ccc(C#CCC(C)C)cc4)[C@H]3C2)c1`: the half-maximal activity concentration (AC50) was 7.96 µM and 10.6 µM.
Turning to `Cc1ccccc1-c1ccc(C2[C@H]3CNC[C@@H]2N3Cc2ccc3c(c2)OCO3)cc1` (stereo partly drawn), the AC50 was > 20 µM (inactive).
The same measure for `Cc1ccccc1-c1ccc([C@H]2[C@@H](CO)N3CCCCN(S(=O)(=O)Cc4ccccc4)C[C@H]23)cc1`: 22.7 µM.
To `CCCCCCCCCCCCCCCC[N+](C)(C)C` belongs 15.3 µM; to `O=S(=O)(c1ccc(-c2ccccc2)cc1)N1C[C@@H]2N[C@H](C1)C2c1ccc(-c2ccncc2)cc1` (stereo partly drawn), 16.1 µM.
The same measure for `O=C(Nc1cccc(F)c1)N1CCCCN2[C@H](CO)[C@@H](c3ccc(C#Cc4cccnc4)cc3)[C@H]2C1`: 23.6 µM.
On to `CC(C)NC(=O)N1CC(=O)N2[C@H](C1)[C@@H](c1ccc(/C=C/c3ccccc3)cc1)[C@@H]2CO`, for which the half-maximal activity concentration (AC50) is 17.9 µM.
The same measure for `c1ccc2c(Oc3nc(Nc4ccc(N5CCOCC5)cc4)c4ncn(C5CCCCC5)c4n3)cccc2c1`: 12.7 µM; for `O=C(NC1CCCC1)N1CCCCN2[C@H](CO)[C@H](c3ccc(-c4cccnc4)cc3)[C@H]2C1`: 18.2 µM.
The same measure for `COc1ccccc1NC(=O)N1C[C@H](O)COC[C@@H]2O[C@H](CC(=O)N3CCC(Cc4ccccc4)CC3)CC[C@H]21`: 37.7 µM; for `COCC(=O)N1CC(=O)N2[C@H](CO)[C@@H](c3ccc(C#CC4CC4)cc3)[C@@H]2C1`: > 39 µM (inactive); for `CN1[C@@H]2c3ccc(/C=C/c4ccccc4)c(=O)n3C[C@H]1[C@H](CO)[C@H]2C(=O)NC1Cc2ccccc2C1`: > 39 µM (inactive).
The same measure for `COCC1CN(C(=O)Cc2ccsc2)Cc2nccn2C1` (stereo not drawn): 28.3 µM.
As for `COc1ccc(S(=O)(=O)N(C)C[C@H]2Oc3c(NC(=O)c4nc5ccccc5s4)cccc3C(=O)N([C@@H](C)CO)C[C@@H]2C)cc1`, the AC50 is 11.3 µM and 1.88 µM.
Consider `COc1ccc(-c2ccc3c(c2)[C@H]2[C@H](CCN2C(=O)c2cccc(F)c2)[C@H](CO)N3)cc1`, for which the AC50 was 14.3 µM.
Consider `CC[C@]1(O)C[C@@H]2CN(CCc3c([nH]c4ccccc34)[C@@](C(=O)OC)(c3cc4c(cc3OC)N(C)[C@H]3[C@@](O)(C(=O)OC)[C@H](OC(C)=O)[C@]5(CC)C=CCN6CC[C@]43[C@@H]65)C2)C1`, for which the AC50 was less than 0.16 µM.
The same measure for `O=C(Nc1ccc2c(c1)OCO2)N1C[C@@H]2N[C@H](C1)C2c1ccc(C=Cc2ccccc2)cc1` (stereo partly drawn): 11.6 µM and 8.75 µM.
For `CN1c2ccc(-c3ccccc3)cc2[C@H]2[C@H](CCN2C(=O)CC2CC2)[C@@H]1CO`, the AC50 was 25.4 µM.
To `COCCC(=O)C1Cc2nc(-c3ccccc3)sc2N1CC1CC1` (stereo not drawn) belongs 25.2 µM; to `CC(C)CC#Cc1ccc([C@@H]2[C@@H](CO)N3CCCCN(C(=O)Nc4ccccc4)C[C@H]23)cc1`, 15.9 µM; to `CCOC(=O)N1CCC(N[C@H]2COC[C@@H]2OCC)CC1`, 36.8 µM.
With `COc1cccc(CN2CCCCN3[C@@H](CO)[C@@H](c4ccc(-c5ccccc5OC)cc4)[C@@H]3C2)c1`, the AC50 was 15.7 µM.
The same measure for `O=S(=O)(c1cccc(F)c1)N1CC[C@@H]2[C@H]1c1cc(C#Cc3ccccc3F)ccc1N[C@@H]2CO`: 17.3 µM; for `Cc1ccc(N2CCC3(CC2)CN(CC#N)Cc2ccccc23)nn1`: > 39 µM (inactive); for `C/C=C/c1ccc(C2[C@@H]3CN(S(=O)(=O)c4ccccc4F)C[C@H]2N3)cc1` (stereo partly drawn): 20.7 µM.
In the case of `COc1ccc(NC(=O)N2CCCCN3[C@H](CO)[C@@H](c4ccc(-c5ccccc5F)cc4)[C@@H]3C2)cc1`, the AC50 was 19.1 µM.
For the compound `CC(C)(O)CC(=O)NCCn1ccc2ncnc(Nc3ccc(Oc4cccc(C(F)(F)F)c4)c(Cl)c3)c21`, the AC50 was > 39 µM (inactive).
To `O=c1c(O)c(-c2ccc(O)c(O)c2)oc2cc(O)cc(O)c12` belongs 15.8 µM; to `CCOc1ccc(N(Cc2nc(-c3ccc(OC)cc3)oc2C)S(=O)(=O)c2ccccc2)cc1`, 7.28 µM; to `N#C[C@@H]1[C@H](c2ccc(-c3cccc(F)c3)cc2)[C@H](CO)N1C(=O)NC1CCCC1`, 36 µM and 24 µM.
For the compound `COc1ccc(-c2nc(N3CCC(N4CCCCC4)CC3)c3ccccc3n2)cc1`, the AC50 is > 39 µM (inactive).
To `N#Cc1cccc(-c2ccc(C3[C@@H]4CN(Cc5ccccc5)C[C@H]3N4)cc2)c1` (stereo partly drawn) belongs 13.1 µM; to `CC1CCCCN1CCNc1nc(-c2ccc(Cl)cc2)nc2ccccc12` (stereo not drawn), 11.8 µM; to `c1csc(-c2cc(NC3CCNCC3)nc3[nH]ccc23)n1`, 37 µM.
Take `O=C(c1ccc(F)cc1)N1CC(=O)N2[C@@H](CO)[C@@H](c3ccc(C#CCC4CCCC4)cc3)[C@@H]2C1`: the AC50 was 21.2 µM.
